Assay results from patent US20080064727A1, “Crystalline forms of tiagabine hydrochloride” (Cephalon, Inc., priority 2006, published 2008).

What was measured:
Assay type in all cases: physicochemical
[1] = Solid-form stability on heating, resulting form by XRPD analysis; settings: heated five (5) minutes at about 160° C. in an argon atmosphere, lyophilized sample (Preparation Method 3), hydrochloride
Procedure: (§1) X-ray powder diffraction (XRPD) analyses were performed using the following instruments & methods:
(§2) A. Shimadzu XRD-6000 X-ray powder diffractometer using Cu Kα radiation. The instrument was equipped with a long fine focus X-ray tube. The tube voltage and amperage were set to 40 kV and 40 mA, respectively. The divergence and scattering slits were set at 1° and the receiving slit was set at 0.15 mm. Diffracted radiation was detected by a NaI scintillation detector. A θ-2θ continuous scan at 3°/min (0.4 sec/0.02° step) from 2.5 to 40° 2θ was used. A silicon standard was analyzed to check the instrument alignment. Data were collected and analyzed using XRD-6000 v. 4.1. Samples were prepared for analysis by placing them in a sample holder.
(§3) B. Inel XRG-3000 diffractometer, equipped with a CPS (Curved Position Sensitive) detector with a 2 Orange of 120°. Real time data were collected using Cu—Kα radiation starting at approximately 4° 2θ at a resolution of 0.03° 2θ. The tube voltage and amperage were set to 40 kV and 30 mA, respectively. The monochromator slit was set at 5 mm by 80 μm or 160 μm. […] Samples were prepared for analysis by packing them into thin-walled glass capillaries. Each capillary was mounted onto a goniometer head that is motorized to permit spinning of the capillary during data acquisition. The acquisition time was between 5 to 10 min. Instrument calibration was performed using a silicon reference standard.
C. Shimadzu XRD-6000 X-ray powder diffractometer equipped with an Anton Paar HTK 1200 high temperature stage (Variable-temperature XRPD (VT-XRPD)). The sample was packed in a ceramic holder and analyzed form 2.5 to 40° 2θ at 3°/min (0.4 sec/0.02° step). The heating rate was 10° C./min. A silicon standard was analyzed to check the instrument alignment. Temperature calibration was performed using vanillin and sulfapyridine USP melting point standards. Data were collected and analyzed using XPD-6000 v.4.1. The system was kept under a purge of nitrogen during the analysis.
(§4) D. Bruker D-8 Discover diffractometer and Bruker's General Area Diffraction Detection System (GADDS, v. 4.1.20). An incident beam of Cu—Kα radiation was produced using a fine-focus tube (40 kV, 40 mA), a Gobel mirror, and a 0.5 mm double-pinhole collimator. The samples were positioned for analysis by securing the well plate to a translation stage and moving each sample to intersect the incident beam. Alternatively, the sample was packed between 3-micron thick films to form a portable disc-shaped specimen, and the specimen was loaded in a holder secured to a translation stage. The samples were analyzed using a transmission geometry. The incident beam was scanned and rastered over the sample during the analysis to optimize orientation statistics. A beam-stop was used to minimize air scatter from the incident beam at low angles. Diffraction patterns were collected using a Hi-Star area detector located 15 cm from the sample and processed using GADDS. The intensity in the GADDS image of the diffraction pattern was integrated using a step size of 0.04° 2θ. The integrated patterns display diffraction intensity as a function of 2θ. Prior to the analysis a silicon standard was analyzed to verify the Si 111 peak position.
E. Peak Picking Methods. Any XRPD files generated from Inel or Bruker XRPD instruments were converted to Shimadzu .raw file using File Monkey version 3.0.4. The Shimadzu .raw file was processed by the Shimadzu XRD-6000 version 4.1 software to automatically find peak positions. The “peak position” means the maximum intensity of a peaked intensity profile. The following processes were used with the Shimadzu XRD-6000 “Basic Process” version 2.6 algorithm: • Smoothing was done on all patterns. • The background was subtracted to find the net, relative intensity of the peaks. • A peak from Cu K alpha2 (1.5444 Å) wavelength was subtracted from the peak generated by Cu K alpha1 (1.5406 Å) peak at 50% intensity for all patterns. […]

[2] = Moisture sorption/desorption (VTI SGA-100 moisture balance)
Procedure: Moisture sorption/desorption data were collected on a VTI SGA-100 moisture balance system. For sorption isotherms, a sorption range of 5 to 95% relative humidity (RH) and a desorption range of 95 to 5% RH in 10% RH increments were used for analysis. The samples were not dried prior to analysis. Equilibrium criteria used for analysis were less than 0.0100% weight change in 5 minutes with a maximum equilibration time of 3 hours if the weight criterion was not met. Data were not corrected for the initial moisture content of the samples.

[3] = Approximate solubility in various solvents by aliquot addition, visual dissolution; settings: thermodynamic from solid, amorphous obtained by Preparation Method 3
Procedure: Dissolution was determined visually. The actual solubilities may be higher than reported due to the use of excess solvent (e.g., because of slow dissolution rates).

[4] = Solid-form stability on storage, resulting form by XRPD analysis
Procedure: as §1, §2, §3, §4
E. Peak Picking Methods. Any XRPD files generated from Inel or Bruker XRPD instruments were converted to Shimadzu .raw file using File Monkey version 3.0.4. The Shimadzu .raw file was processed by the Shimadzu XRD-6000 version 4.1 software to automatically find peak positions. The “peak position” means the maximum intensity of a peaked intensity profile. The following processes were used with the Shimadzu XRD-6000 “Basic Process” version 2.6 algorithm: • Smoothing was done on all patterns. • The background was subtracted to find the net, relative intensity of the peaks. • A peak from Cu K alpha2 (1.5444 Å) wavelength was subtracted from the peak generated by Cu K alpha1 (1.5406 Å) peak at 50% intensity for all patterns. Differential Scanning Calorimetry

For Cc1ccsc1C(=CCCN1CCC[C@@H](C(=O)O)C1)c1sccc1C.Cl [tiagabine HCl amorphous, tiagabine hydrochloride], the “Form indicated by XRPD analysis after heating” value [1] was “tiagabine HCl Form B”, the “Form indicated by XRPD analysis after heating” value ([1]; listed as Tiagabine hydrochloride amorphous) was “tiagabine hydrochloride anhydrous” and the “Weight gain upon sorption” value ([2]; at 95% relative humidity (RH)) was 12.1%. For the same compound, the “Weight loss upon desorption” value ([2]; from 95% to 5% RH) was 9.5%, the “Forms present by XRPD analysis after moisture sorption/desorption” value ([2]; sample after sorption 5 to 95% RH and desorption 95 to 5% RH) was “tiagabine HCl Forms A and B” and the solubility ([3]; aqueous with cosolvent or surfactant or cyclodextrin, solvent: 2-propanol/water (1:1)) was over 129 mg/mL. It also gave a solubility ([3]; organic solvent or mixture, solvent: 1,4 dioxane/water (3:1)) of over 359 mg/mL, a solubility ([3]; organic solvent or mixture, solvent: Acetonitrile) of under 26 mg/mL and a solubility ([3]; organic solvent or mixture, solvent: Benzonitrile) of over 448 mg/mL. The solubility ([3]; organic solvent or mixture, solvent: Chloroform) was over 582 mg/mL, the solubility ([3]; organic solvent or mixture, solvent: Dichloromethane) was under 34 mg/mL and the solubility ([3]; organic solvent or mixture, solvent: Dioxane) was over 542 mg/mL. For the same compound, the solubility ([3]; organic solvent or mixture, solvent: Tetrahydrofuran) was over 562 mg/mL, the solubility ([3]; organic solvent or mixture, solvent: Toluene) was under 43 mg/mL and the solubility ([3]; organic solvent or mixture, solvent: Trifluoroethanol) was over 713 mg/mL. The solubility ([3]; organic solvent or mixture, solvent: ethanol/water (10:1)) was over 400 mg/mL, the solubility ([3]; organic solvent or mixture, solvent: ethyl acetate (wet)) was over 1190 mg/mL and the solubility ([3]; organic solvent or mixture, solvent: ethyl acetate) was under 24 mg/mL. The solubility ([3]; organic solvent or mixture, solvent: methyl ethyl ketone) was over 546 mg/mL, the solubility ([3]; organic solvent or mixture, solvent: methyl-tert-butyl ether) was under 14 mg/mL and the solubility ([3]; water, solvent: Water) was over 490 mg/mL. For the same compound, the “Time stable when stored” value ([4]; about 5° C., 11% relative humidity) was “at least 5 days”, the “Time stable when stored” value ([4]; about 5° C., 43% relative humidity) was at least 8 days and the “Time stable when stored” value ([4]; room temperature, 33% relative humidity) was “at least 22 days”. For the same compound, the “Time stable when stored” value ([4]; room temperature, 58% relative humidity) was “at least 22 days”, the “Form indicated by XRPD analysis after storage” value (“Form indicated … after storage” below) ([4]; stored 5 days, about 5° C., about 11% relative humidity, lyophilized sample (Preparation Method 3)) was “tiagabine HCl amorphous” and the “Form indicated … after storage” value ([4]; stored 8 days, about 5° C., about 43% relative humidity, lyophilized sample (Preparation Method 3)) was “tiagabine HCl amorphous”. For the same compound, the “Form indicated … after storage” value ([4]; stored 22 days, room temperature, about 33% relative humidity, crash-cooled sample (Preparation Method 1)) was “tiagabine HCl amorphous”, the “Form indicated … after storage” value ([4]; stored 22 days, room temperature, about 58% relative humidity, crash-cooled sample (Preparation Method 1)) was “tiagabine HCl amorphous” and the “Form indicated … after storage” value ([4]; stored 22 days, room temperature, about 75% relative humidity, crash-cooled sample (Preparation Method 1), hydrochloride) was “a mixture of tiagabine hydrochloride Forms A and B”. For the same compound, the “Form indicated … after storage” value ([4]; stored 22 days, room temperature, about 75% relative humidity, crash-cooled sample (Preparation Method 1), listed as Tiagabine hydrochloride amorphous, hydrochloride) was “a mixture of Forms A and B”, the “Form indicated … after storage” value ([4]; stored 22 days, room temperature, about 84% relative humidity, crash-cooled sample (Preparation Method 1), hydrochloride) was “a mixture of tiagabine hydrochloride Forms A and B” and the “Form indicated … after storage” value ([4]; stored 22 days, room temperature, about 84% relative humidity, crash-cooled sample (Preparation Method 1), listed as Tiagabine hydrochloride amorphous, hydrochloride) was “a mixture of Forms A and B”.
